# Assay results from patent US20060078494A1, “Use of inhibitors of 24-hydroxylase in the treatment of cancer” (Sapphire Therapeutics, Inc., priority 2004, published 2006).
# How the values were obtained:
# [1] = target: T1, 24-hydroxylase (Homo sapiens, UniProt Q07973); settings: described by Kahraman et al., J. Med. Chem. 47:6854-6863 (2004); cited from earlier work
# T1 sequence (Q07973 36-514): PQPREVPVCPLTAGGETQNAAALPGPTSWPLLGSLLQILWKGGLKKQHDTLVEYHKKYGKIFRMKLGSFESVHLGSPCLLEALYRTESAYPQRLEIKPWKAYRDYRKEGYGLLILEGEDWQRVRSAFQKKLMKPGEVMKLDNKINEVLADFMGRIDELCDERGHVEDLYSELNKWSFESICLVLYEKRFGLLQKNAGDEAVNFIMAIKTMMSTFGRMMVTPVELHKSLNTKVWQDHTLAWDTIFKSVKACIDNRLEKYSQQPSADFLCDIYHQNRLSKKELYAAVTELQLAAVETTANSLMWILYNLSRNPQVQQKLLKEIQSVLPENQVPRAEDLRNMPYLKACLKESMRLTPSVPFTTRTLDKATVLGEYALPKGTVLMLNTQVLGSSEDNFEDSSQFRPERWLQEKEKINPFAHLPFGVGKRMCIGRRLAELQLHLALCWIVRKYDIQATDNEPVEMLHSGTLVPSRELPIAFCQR
# [2] = tested on: C57BL6 murine ID8 ovarian carcinoma cell line; experiment: Mouse syngeneic model of ovarian carcinoma (ID8 VEGF164/GFP); format: in vivo, C57BL6 mice; settings: expected; for tumor growth delay compared with vehicle control: single agent (inhibitor 2 mg/kg; cisplatin 2 or 6 mg/kg)
# Experimental: The efficacy of a 24-hydroxylase inhibitor, alone or in combination with a chemotherapeutic agent is tested in a mouse syngeneic model of ovarian carcinoma using methods as described in Zhang et al., (Am. J. of Pathol. (2002) 161:2295-2309). Briefly, using retroviral transfection and fluorescence-activated cell sorting, a C57BL6 murine ID8 ovarian carcinoma cell line is generated that stably overexpresses the murine VEGF164 isoform and the enhanced green fluorescence protein (GFP). The retroviral construct containing VEGF164 and GFP cDNAs is then transfected into BOSC23 cells. The cells are analyzed by FACS cell sorting, and cells showing high GFP fluorescence are identified and isolated. The ID8 VEGF164/GFP transfected cells are cultured to subconfluence and prepared in a single-cell suspension in phosphate buffer saline (PBS) and cold […] (BD Biosciences, Bedford, Mass.). Six to eight week old female C57BL6 mice are injected subcutaneously in the flank with 5×10^6 transfected or untransfected (control) cells. Animals are sacrificed eight weeks after inoculation and evaluated for tumor growth. Mice are treated with a 24-hydroxylase inhibitor (VID 400/RC-8800) beginning 3-14 days following tumor implantation. Mice are treated in the following groups, with 5 mice for each group:
# The agents are administered on a daily basis for 14 days. Animals are monitored daily for body weight, and significant morbidity.
# [3] = tested on: Human RL B-lymphoma cells; experiment: Human RL B-lymphoma cells in SCID mice; format: in vivo; settings: expected
# Experimental: Human RL B-lymphoma cells (Beckwith et al. (1990) J. Nat. Cancer Inst. 82, 501) are maintained in vitro by passage in growth medium. The cells are washed thoroughly in PBS to remove culture components. SCID mice are injected with one million human lymphoma cells via the tail vein in 100 microliters (μl). 24-hydroxylase inhibitor treatment is initiated the following day by daily intraperitoneal (i.p.) injection of 3 mg/kg 24-hydroxylase inhibitor (VID400), alone or in combination with doxorubicin at 5 mg/kg, or vehicle. Mice are monitored for survival and significant morbidity. […] Depending on the lymphoma cell line employed, the untreated mice typically die within 3 to 6 weeks.
# [4] = target: T2, 24-hydroxylase (CYP24) (Homo sapiens, UniProt Q07973); settings: identified by Schuster et al., J. Cell. Biochem. 88:372-380 (2003); cited from earlier work
# T2 construct: confluent cultures of human keratinocytes are isolated from adult skin in serum-free keratinocyte growth medium; endogenous in cells; host or cells: primary human keratinocytes from adult skin
# T2 sequence (Q07973 36-514): T1 sequence (Q07973 36-514)
smiles,measurement,setting,value
C=C1/C(=C\C=C2/CCCC3(C)C2CC[C@@H]3[C@H](C)CCS(=N)(=O)c2ccc(F)cc2)C[C@@H](O)C[C@@H]1O (stereo partly drawn) [Formula VI],potency as 24-hydroxylase inhibitor (structure activity relationships),[1],slightly less potent
"N.N.[Cl][Pt][Cl] [Cisplatin, reference compound]",tumor growth delay compared with vehicle control,[2]; daily for 14 days,significant delay
"COc1cccc2c1C(=O)c1c(O)c3c(c(O)c1C2=O)C[C@@](O)(C(=O)CO)C[C@@H]3O[C@H]1C[C@H](N)[C@H](O)[C@H](C)O1 [doxorubicin, reference compound]",inhibition in tumor growth,"[3]; doxorubicin 5 mg/kg alone, SCID mice, RL B-lymphoma",significant inhibition
"O=C(NC[C@@H](c1ccccc1)n1ccnc1)c1ccc(-c2ccc(Cl)cc2)cc1 [(R)-VID400, 2-(R)-4′-Chlorobiphenyl-4-carboxylic acid (2-imidazol-1-yl-2-phenyl-ethyl)-amide]",inhibition in tumor growth,[3]; VID400 3 mg/kg i.p. daily in combination with doxorubicin 5 mg/kg,highest growth inhibition
same,tumor growth delay,"[2]; 24-hydroxylase inhibitor 2 mg/kg + cisplatin 2 or 6 mg/kg, daily for 14 days, vs cisplatin alone at same dosage or inhibitor alone",delay longer than cisplatin alone
same,body weight,"[2]; 24-hydroxylase inhibitor 2 mg/kg + cisplatin, vs vehicle or single therapy controls of same dosage",maintain body weight significantly more
same,tumor growth delay compared with vehicle control,[2]; daily for 14 days,significant delay
same,inhibition of 24-hydroxylase,[4],potent inhibitors
C=C1/C(=C\C=C2/CCCC3(C)C2CC[C@@H]3[C@H](C)CCS(=N)(=O)c2ccccc2)C[C@@H](O)C[C@@H]1O (stereo partly drawn) [Formula V],potency as 24-hydroxylase inhibitor (structure activity relationships),[1],most potent
